Test results published in patent US12371428B2 (Exelixis, Inc., priority 2019, dated 2025).
Counter-ions that a name gives are not always drawn.

Assays:
Assay type in all cases: cell-based
[1] = biological target: KDR (phospho-KDR, VEGF165-stimulated HUVEC cells) (Homo sapiens (Human), UniProt P35968); test: KDR autophosphorylation ELISA in HUVEC cells (Example G); conditions: cellular activity; KDR autophosphorylation ELISA in HUVEC cells
In short: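 Cells seeded, grown 24 h at 37 °C, starved 24 h serum-free; cpd 8-pt curve, 0.3% DMSO, 1 h; VEGF165 100 ng/mL, 5 min; cold PBS wash, lysis with orthovanadate and protease/phosphatase inhibitors; pKDR ELISA; IC50 by 4-parameter logistic regression.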

[2] = biological target: Mer (phospho-Mer, MERTK-transfected 293A cells) (Homo sapiens (Human), UniProt Q12866); test: Mer autophosphorylation ELISA in transient transfected 293A cells (Example H); conditions: cellular activity; Mer autophosphorylation ELISA in transient transfected 293A cells
In short: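 293A cells transiently transfected with human MERTK were treated 1 h in serum-free medium with an 8-point compound dilution (0.3% DMSO final). Lysates were assayed by phospho-Mer sandwich ELISA against a phospho-Mer standard; IC50 came from a 4-parameter logistic fit, normalised to DMSO (100%) and reference-inhibitor (0%) controls.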

[3] = biological target: Met (phospho-Met, HGF-stimulated PC-3 prostate cancer cells) (Homo sapiens (Human), UniProt P08581); test: Met autophosphorylation ELISA in PC-3 cells (Example F); conditions: cellular activity; Met autophosphorylation ELISA in PC-3 cells; read-out: c-Met IC50
In short: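 PC-3 cells, serum-starved 3 h, were treated with compounds (8-point dose curve, 0.3% DMSO final) for 1 h, then stimulated with 100 ng/mL recombinant human HGF for 10 min. Lysate phospho-Met (panTyr) was quantified by sandwich ELISA; IC50 from 4-parameter logistic fit.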

Sequence of Met (phospho-Met, HGF-stimulated PC-3 prostate cancer cells) (P08581 25-1390): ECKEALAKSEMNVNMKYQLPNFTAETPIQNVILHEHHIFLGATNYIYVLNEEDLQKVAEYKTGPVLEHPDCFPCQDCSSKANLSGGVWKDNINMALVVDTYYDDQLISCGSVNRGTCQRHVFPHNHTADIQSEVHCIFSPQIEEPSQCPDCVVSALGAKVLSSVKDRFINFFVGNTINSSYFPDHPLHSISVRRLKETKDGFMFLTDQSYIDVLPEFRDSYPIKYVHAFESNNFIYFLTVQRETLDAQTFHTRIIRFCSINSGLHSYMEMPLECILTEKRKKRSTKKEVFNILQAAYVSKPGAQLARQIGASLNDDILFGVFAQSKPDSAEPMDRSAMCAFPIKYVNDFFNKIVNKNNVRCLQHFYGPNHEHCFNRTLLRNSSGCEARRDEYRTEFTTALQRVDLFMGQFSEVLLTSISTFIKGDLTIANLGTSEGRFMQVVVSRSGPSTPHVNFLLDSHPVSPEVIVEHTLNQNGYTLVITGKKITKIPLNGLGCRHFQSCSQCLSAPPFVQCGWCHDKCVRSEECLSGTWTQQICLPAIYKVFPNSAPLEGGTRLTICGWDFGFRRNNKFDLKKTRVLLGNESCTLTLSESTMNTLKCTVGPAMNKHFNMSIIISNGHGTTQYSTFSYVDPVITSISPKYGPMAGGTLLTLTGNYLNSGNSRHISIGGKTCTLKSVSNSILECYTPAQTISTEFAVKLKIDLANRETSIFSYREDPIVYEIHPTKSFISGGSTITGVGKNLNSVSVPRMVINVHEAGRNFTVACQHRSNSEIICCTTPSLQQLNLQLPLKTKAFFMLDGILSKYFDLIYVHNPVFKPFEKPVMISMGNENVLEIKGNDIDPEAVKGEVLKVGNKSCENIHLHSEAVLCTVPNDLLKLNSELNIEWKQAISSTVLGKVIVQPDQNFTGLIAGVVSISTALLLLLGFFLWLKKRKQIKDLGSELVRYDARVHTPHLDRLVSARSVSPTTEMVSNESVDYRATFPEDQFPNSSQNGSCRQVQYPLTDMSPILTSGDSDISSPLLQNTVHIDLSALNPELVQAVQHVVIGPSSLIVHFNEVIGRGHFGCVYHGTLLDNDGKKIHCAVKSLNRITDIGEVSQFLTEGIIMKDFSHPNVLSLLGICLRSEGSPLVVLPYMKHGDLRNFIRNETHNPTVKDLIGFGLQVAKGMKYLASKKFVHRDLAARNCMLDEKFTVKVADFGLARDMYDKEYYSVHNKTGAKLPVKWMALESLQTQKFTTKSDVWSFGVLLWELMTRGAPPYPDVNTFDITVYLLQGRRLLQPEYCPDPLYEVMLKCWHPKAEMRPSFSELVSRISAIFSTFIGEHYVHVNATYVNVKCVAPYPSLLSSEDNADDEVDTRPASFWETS
Sequence of KDR (phospho-KDR, VEGF165-stimulated HUVEC cells) (P35968 20-1356): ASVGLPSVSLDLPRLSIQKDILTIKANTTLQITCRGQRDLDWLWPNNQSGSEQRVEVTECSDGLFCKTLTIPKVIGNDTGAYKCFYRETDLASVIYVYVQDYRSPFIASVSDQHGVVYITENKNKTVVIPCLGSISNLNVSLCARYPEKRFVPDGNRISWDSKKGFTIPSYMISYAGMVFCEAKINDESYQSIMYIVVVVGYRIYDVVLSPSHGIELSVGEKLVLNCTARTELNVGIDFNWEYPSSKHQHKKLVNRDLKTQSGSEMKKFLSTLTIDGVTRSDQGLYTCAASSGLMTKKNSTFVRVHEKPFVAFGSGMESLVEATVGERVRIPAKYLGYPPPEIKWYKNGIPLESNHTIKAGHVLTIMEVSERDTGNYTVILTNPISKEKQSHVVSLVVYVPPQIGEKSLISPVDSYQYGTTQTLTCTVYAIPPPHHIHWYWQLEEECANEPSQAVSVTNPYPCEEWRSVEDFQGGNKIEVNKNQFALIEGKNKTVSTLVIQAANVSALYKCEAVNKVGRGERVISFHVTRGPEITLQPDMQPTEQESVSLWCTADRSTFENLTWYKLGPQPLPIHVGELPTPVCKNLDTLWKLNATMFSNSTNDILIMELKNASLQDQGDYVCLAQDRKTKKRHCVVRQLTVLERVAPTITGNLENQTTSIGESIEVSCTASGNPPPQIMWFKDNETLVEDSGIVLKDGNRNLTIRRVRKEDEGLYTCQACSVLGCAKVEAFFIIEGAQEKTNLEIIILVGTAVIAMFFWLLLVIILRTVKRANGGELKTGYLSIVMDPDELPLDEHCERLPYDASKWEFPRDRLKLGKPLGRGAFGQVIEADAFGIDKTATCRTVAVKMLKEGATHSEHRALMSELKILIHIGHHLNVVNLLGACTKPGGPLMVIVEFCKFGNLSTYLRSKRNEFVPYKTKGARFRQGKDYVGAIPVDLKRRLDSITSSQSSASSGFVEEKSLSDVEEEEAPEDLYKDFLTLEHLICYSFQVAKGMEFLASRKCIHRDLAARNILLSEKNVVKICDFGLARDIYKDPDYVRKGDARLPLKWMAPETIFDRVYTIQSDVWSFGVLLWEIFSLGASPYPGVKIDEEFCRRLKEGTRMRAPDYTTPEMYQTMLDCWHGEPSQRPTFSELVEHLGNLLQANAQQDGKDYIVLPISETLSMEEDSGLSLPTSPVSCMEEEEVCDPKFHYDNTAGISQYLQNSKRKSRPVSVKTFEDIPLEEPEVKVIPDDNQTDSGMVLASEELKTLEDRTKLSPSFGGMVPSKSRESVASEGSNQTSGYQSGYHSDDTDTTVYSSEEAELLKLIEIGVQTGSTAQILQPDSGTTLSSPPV
Sequence of Mer (phospho-Mer, MERTK-transfected 293A cells) (Q12866 21-999): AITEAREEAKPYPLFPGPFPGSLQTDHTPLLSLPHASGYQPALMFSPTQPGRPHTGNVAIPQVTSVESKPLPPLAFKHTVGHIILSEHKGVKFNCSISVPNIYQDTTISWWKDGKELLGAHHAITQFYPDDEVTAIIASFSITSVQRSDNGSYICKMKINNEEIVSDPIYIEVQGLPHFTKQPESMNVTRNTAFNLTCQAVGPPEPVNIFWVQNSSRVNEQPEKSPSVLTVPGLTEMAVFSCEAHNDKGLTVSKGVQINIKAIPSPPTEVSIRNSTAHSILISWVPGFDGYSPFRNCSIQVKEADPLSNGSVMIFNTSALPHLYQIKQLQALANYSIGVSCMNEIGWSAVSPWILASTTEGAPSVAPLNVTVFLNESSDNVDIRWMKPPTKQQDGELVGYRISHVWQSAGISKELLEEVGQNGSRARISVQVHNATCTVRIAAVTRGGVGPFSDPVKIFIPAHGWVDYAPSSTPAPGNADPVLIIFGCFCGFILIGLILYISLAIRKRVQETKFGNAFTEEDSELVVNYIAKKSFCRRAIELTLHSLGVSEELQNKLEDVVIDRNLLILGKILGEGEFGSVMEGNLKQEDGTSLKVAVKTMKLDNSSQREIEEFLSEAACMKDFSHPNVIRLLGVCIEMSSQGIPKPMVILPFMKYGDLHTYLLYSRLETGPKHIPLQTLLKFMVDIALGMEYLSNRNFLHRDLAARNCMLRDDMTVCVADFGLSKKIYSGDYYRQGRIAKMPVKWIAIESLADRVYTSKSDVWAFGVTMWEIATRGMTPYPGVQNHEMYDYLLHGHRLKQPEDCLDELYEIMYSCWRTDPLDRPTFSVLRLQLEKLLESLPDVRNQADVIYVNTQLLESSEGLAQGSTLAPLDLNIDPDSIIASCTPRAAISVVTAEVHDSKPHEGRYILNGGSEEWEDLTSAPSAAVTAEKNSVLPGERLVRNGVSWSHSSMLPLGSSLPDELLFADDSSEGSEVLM

SMILES | IC50 [1] | IC50 [2] | IC50 [3]
Cc1c(-c2ccc(F)cc2)c(=O)c(C(=O)Nc2ccc(Oc3ccnc4cc(F)cnc34)c(F)c2)cn1C(C)C [Compound 162, N-[3-Fluoro-4-[(7-fluoro-1,5-naphthyridin-4-yl)oxy]phenyl]-5-(4-fluorophenyl)-6-methyl-4-oxo-1-propan-2-ylpyridine-3-carboxamide] | > 300 nM | < 100 nM | 100 to 300 nM
CCc1nc2c(Oc3ccc(NC(=O)c4cn(C(C)C)c(C)c(-c5ccc(F)cc5)c4=O)cc3F)ccnc2cc1OC [Compound 588, N-[4-[(6-Ethyl-7-methoxy-1,5-naphthyridin-4-yl)oxy]-3-fluorophenyl]-5-(4-fluorophenyl)-6-methyl-4-oxo-1-propan-2-ylpyridine-3-carboxamide] | > 300 nM | < 100 nM | < 100 nM
Cc1nc2c(Oc3ccc(NC(=O)c4cn(C(C)C)c(C)c(-c5ccc(F)cc5)c4=O)cc3F)ccnc2cc1-c1cnn(C(F)F)c1 [Compound 614, N-[4-[[7-[1-(Difluoromethyl)pyrazol-4-yl]-6-methyl-1,5-naphthyridin-4-yl]oxy]-3-fluorophenyl]-5-(4-fluorophenyl)-6-methyl-4-oxo-1-propan-2-ylpyridine-3-carboxamide hydrochloride] | > 300 nM | < 100 nM | 100 to 300 nM
COc1cc2nccc(Oc3ccc(NC(=O)c4cn(C(C)C)c(C)c(-c5ccc(F)cc5)c4=O)cc3F)c2nc1Br [Compound 143, N-[4-[(6-Bromo-7-methoxy-1,5-naphthyridin-4-yl)oxy]-3-fluorophenyl]-5-(4-fluorophenyl)-6-methyl-4-oxo-1-propan-2-ylpyridine-3-carboxamide] | 100 to 300 nM | < 100 nM | < 100 nM
Cc1nc2c(Oc3ccc(NC(=O)c4cnc(C)c(-c5ccc(F)cc5)c4O)cc3F)ccnc2cc1-c1cccnc1 [Compound 618, N-[3-Fluoro-4-[(6-methyl-7-pyridin-3-yl-1,5-naphthyridin-4-yl)oxy]phenyl]-5-(4-fluorophenyl)-4-hydroxy-6-methylpyridine-3-carboxamide hydrochloride] | < 100 nM | < 100 nM | 100 to 300 nM
COc1cc2nccc(Oc3ccc(NC(=O)c4cn(C(C)C)c(C)c(-c5ccc(F)cc5)c4=O)cc3F)c2nc1NS(C)(=O)=O [Compound 581, N-[3-Fluoro-4-[[6-(methanesulfonamido)-7-methoxy-1,5-naphthyridin-4-yl]oxy]phenyl]-5-(4-fluorophenyl)-6-methyl-4-oxo-1-propan-2-ylpyridine-3-carboxamide] | > 300 nM | < 100 nM | 100 to 300 nM
COc1cc2nccc(Oc3ccc(NC(=O)c4cn(C(C)C)c(C)c(-c5ccccc5)c4=O)cc3F)c2nc1OC [Compound 29, N-[4-[(6,7-Dimethoxy-1,5-naphthyridin-4-yl)oxy]-3-fluorophenyl]-6-methyl-4-oxo-5-phenyl-1-propan-2-ylpyridine-3-carboxamide hydrochloride] | 100 to 300 nM | < 100 nM | < 100 nM
COc1nc2c(Oc3ccc(NC(=O)c4cn(C(C)C)cc(-c5ccc(F)cc5)c4=O)cc3F)ccnc2cc1Br [Compound 131, N-[4-[(7-Bromo-6-methoxy-1,5-naphthyridin-4-yl)oxy]-3-fluorophenyl]-5-(4-fluorophenyl)-4-oxo-1-propan-2-ylpyridine-3-carboxamide] | > 300 nM | < 100 nM | < 100 nM
COc1cc2nccc(Oc3ccc(NC(=O)c4cnc(N)n(-c5ccc(F)cc5)c4=O)cc3F)c2nc1OC [Compound 565, 2-Amino-N-[4-[(6,7-dimethoxy-1,5-naphthyridin-4-yl)oxy]-3-fluorophenyl]-1-(4-fluorophenyl)-6-oxopyrimidine-5-carboxamide] | < 100 nM | < 100 nM | < 100 nM
CNC(=O)c1cnc2c(Oc3ccc(NC(=O)c4cnc(C)c(-c5ccc(F)cc5)c4O)cc3F)ccnc2c1 [Compound 578, 8-[2-Fluoro-4-[[5-(4-fluorophenyl)-4-hydroxy-6-methylpyridine-3-carbonyl]amino]phenoxy]-N-methyl-1,5-naphthyridine-3-carboxamide] | > 300 nM | > 300 nM | > 300 nM
COc1cc2nccc(Oc3ccc(NC(=O)c4cnc(C)c(-c5ccc(F)cc5)c4O)cc3F)c2nc1Br [Compound 142, N-[4-[(6-Bromo-7-methoxy-1,5-naphthyridin-4-yl)oxy]-3-fluorophenyl]-5-(4-fluorophenyl)-4-hydroxy-6-methylpyridine-3-carboxamide] | < 100 nM | < 100 nM | < 100 nM
Cc1nc(C)c(-c2ccc(F)cc2)c(O)c1C(=O)Nc1ccc(Oc2ccnc3cc(C(C)C)cnc23)cc1 [Compound 598, 5-(4-Fluorophenyl)-4-hydroxy-2,6-dimethyl-N-[4-[(7-propan-2-yl-1,5-naphthyridin-4-yl)oxy]phenyl]pyridine-3-carboxamide] | < 100 nM | < 100 nM | < 100 nM
COc1cc2c(Oc3ccc(NC(=O)c4cn(C5CC5)c(C)c(-c5ccc(F)cc5)c4=O)cc3F)ccnc2cn1 [Compound 640, 1-cyclopropyl-N-[3-fluoro-4-[(6-methoxy-1,7-naphthyridin-4-yl)oxy]phenyl]-5-(4-fluorophenyl)-6-methyl-4-oxopyridine-3-carboxamide] | > 300 nM | < 100 nM | < 100 nM

Second part, the compound after the results:

IC50 [1] | IC50 [2] | IC50 [3] | SMILES
< 100 nM | 100 to 300 nM | > 300 nM | Cc1nc2c(Oc3ccc(NC(=O)c4cnc(C)c(-c5ccc(F)cc5)c4O)cc3)ccnc2cc1-c1cccnc1 [Compound 616, 5-(4-Fluorophenyl)-4-hydroxy-6-methyl-N-[4-[(6-methyl-7-pyridin-3-yl-1,5-naphthyridin-4-yl)oxy]phenyl]pyridine-3-carboxamide hydrochloride]
< 100 nM | < 100 nM | < 100 nM | COc1cnc2c(Oc3ccc(NC(=O)c4cnc(C)c(-c5ccc(F)cc5C)c4O)cc3F)ccnc2c1 [Compound 175, N-[3-Fluoro-4-[(7-methoxy-1,5-naphthyridin-4-yl)oxy]phenyl]-5-(4-fluoro-2-methylphenyl)-4-hydroxy-6-methylpyridine-3-carboxamide]
< 100 nM | < 100 nM | < 100 nM | Cc1ncc(C(=O)Nc2ccc(Oc3ccnc4cnccc34)c(F)c2)c(O)c1-c1ccc(F)cc1 [Compound 642, N-[3-fluoro-4-(1,7-naphthyridin-4-yloxy)phenyl]-5-(4-fluorophenyl)-4-hydroxy-6-methylpyridine-3-carboxamide]
< 100 nM | < 100 nM | < 100 nM | COc1cc2nccc(Oc3ccc(NC(=O)c4cn(OC)cc(-c5ccc(F)cc5)c4=O)cc3)c2nc1OC [Compound 127, N-[4-[(6,7-Dimethoxy-1,5-naphthyridin-4-yl)oxy]phenyl]-5-(4-fluorophenyl)-1-methoxy-4-oxopyridine-3-carboxamide]
< 100 nM | < 100 nM | < 100 nM | Cc1cc(F)ccc1-c1c(C)ncc(C(=O)Nc2ccc(Oc3ccnc4cc(C(C)C)cnc34)c(F)c2)c1O [Compound 593, 5-(4-Fluoro-2-methylphenyl)-N-[3-fluoro-4-[(7-propan-2-yl-1,5-naphthyridin-4-yl)oxy]phenyl]-4-hydroxy-6-methylpyridine-3-carboxamide]
< 100 nM | < 100 nM | < 100 nM | CCn1cc(C(=O)Nc2ccc(Oc3ccnc4cc(OC)c(OC)nc34)cc2)c(=O)c(-c2ccc(F)cc2)c1 [Compound 167, N-[4-[(6,7-Dimethoxy-1,5-naphthyridin-4-yl)oxy]phenyl]-1-ethyl-5-(4-fluorophenyl)-4-oxopyridine-3-carboxamide]
< 100 nM | < 100 nM | 100 to 300 nM | COc1nc2c(Oc3ccc(NC(=O)c4cncc(-c5ccc(F)cc5)c4O)cc3F)ccnc2cc1Br [Compound 129, N-[4-[(7-Bromo-6-methoxy-1,5-naphthyridin-4-yl)oxy]-3-fluorophenyl]-5-(4-fluorophenyl)-4-hydroxypyridine-3-carboxamide]
< 100 nM | < 100 nM | < 100 nM | COc1cc2c(Oc3ccc(NC(=O)c4cnc(C)c(-c5ccc(F)cc5)c4O)cc3F)ccnc2cn1 [Compound 639, N-[3-fluoro-4-[(6-methoxy-1,7-naphthyridin-4-yl)oxy]phenyl]-5-(4-fluorophenyl)-4-hydroxy-6-methylpyridine-3-carboxamide]
< 100 nM | < 100 nM | < 100 nM | Cc1nc(C)c(-c2ccc(F)cc2)c(O)c1C(=O)Nc1ccc(Oc2ccnc3cc(C(C)C)cnc23)c(F)c1 [Compound 595, 5-(4-Fluorophenyl)-N-[3-fluoro-4-[(7-propan-2-yl-1,5-naphthyridin-4-yl)oxy]phenyl]-4-hydroxy-2,6-dimethylpyridine-3-carboxamide]
< 100 nM | < 100 nM | < 100 nM | COc1cc2nccc(Oc3ccc(NC(=O)c4cnc(C)c(-c5ccc(F)cc5)c4O)cc3)c2nc1OC [Compound 119, N-[4-[(6,7-Dimethoxy-1,5-naphthyridin-4-yl)oxy]phenyl]-5-(4-fluorophenyl)-4-hydroxy-6-methylpyridine-3-carboxamide]
